Like-named read-outs stand apart in the source and are kept apart here.
What was measured:
[1] = type: physicochemical
Protocol: The following compositions comprising cyazofamid and Mancozeb were prepared, with the different stabilizers substituted. The AHS stability of these formulations was tested.
The formulation prepared according to Example 1 (adjusted for purity of the technical material) was modified to replace the HMT content with 1.0% sodium carbonate. The stability of both the formulations were tested, with the following results: […]

[2] = type: physicochemical; conditions: for Cyazofamid Technical, 0 Day / Cyazofamid Technical, 14 Day: storage at 54° C.
Protocol: Experiment: Cyazofamid technical was mixed with Na2CO3 (Inorganic base) in one batch and with HMT (organic base) in the other. Both the samples were kept at 54° C. for 14 days. After 14 days, the cyazofamid content in both the samples was analyzed. […] The stability of cyazofamid technical was tested in the presence of an inorganic base and compared with the stability in the presence of an organic base, with the following results: […]

[3] = Example 1 formulation with HMT replaced by 1.0% Na2CO3
[4] = Example 1 formulation with HMT replaced by 1.0% Na2CO3, 14 D AHS at 54° C.
[5] = Example 1 formulation, presence of 1.0% HMT
[6] = Example 1 formulation, presence of 1.0% HMT, 14 D AHS at 54° C.

| Compound | Degradation (%) ([1]; 14 day) | Active content in formulation, 0 D [1, 3] | Active content in formulation, 14 D AHS at 54° C. [1, 4] | Active content in formulation, 0 D [1, 5] | Active content in formulation, 14 D AHS at 54° C. [1, 6] | drop in cyazofamid concentration upon accelerated storage (2 weeks at 54° C.) [%] | Degradation with respect to storage at ambient condition (14 days) [%] | Purity after 14 days of storage at 10° C. (glass bottle, air tight plug and cap, 10° C., 14 days) | Purity after 14 days of storage at 54 ± 2° C. (glass bottle, air tight plug and cap, 54 ± 2° C., 14 days) | Purity after 14 days, Room temperature (30-35° C.) (glass bottle, air tight plug and cap, room temperature (30-35° C.), 14 days) | Cyazofamid Technical, 0 Day ([2]; HMT 0.5%) | Cyazofamid Technical, 14 Day ([2]; HMT 0.5%) | Cyazofamid Technical, 0 Day ([2]; Na2CO3 0.5%) | Cyazofamid Technical, 14 Day ([2]; Na2CO3 0.5%) | Cyazofamid content, 0 D ([2]; Presence of 0.5% HMT) | Cyazofamid content, 14 D AHS at 54° C. ([2]; Presence of 0.5% HMT) | Cyazofamid content, 0 D ([2]; Presence of 0.5% Na2CO3) | Cyazofamid content, 14 D AHS at 54° C. ([2]; Presence of 0.5% Na2CO3) | Degradation (%) [1, 4] [%] | Degradation (%) [1, 6] [%] |
| --- | --- | --- | --- | --- | --- | --- | --- | --- | --- | --- | --- | --- | --- | --- | --- | --- | --- | --- | --- | --- |
| Cc1ccc(-c2c(Cl)nc(C#N)n2S(=O)(=O)N(C)C)cc1 [Cyazofamid, 4-chloro-2-cyano-N,N-dimethyl-5-p-tolylimidazole-1-sulfonamide] | 11.16 | 6.27 %, w/w | 5.57 %, w/w | 5.59 %, w/w | 5.43 %, w/w | 12.5 | 12.87 | 95.36 | 83.25 | 95.55 | 95.10 | 94.27 | 95.98 | 92.38 | 95.1 %, w/w | 94.27 %, w/w | 95.98 %, w/w | 92.38 %, w/w |  |  |
| Mancozeb |  | 70.67 %, w/w | 70.49 %, w/w | 70.34 %, w/w | 70.14 %, w/w |  |  |  |  |  |  |  |  |  |  |  |  |  | 0.25 | 0.28 |
